Measured values published in ChEMBL document CHEMBL4619739, “Synthesis and biological evaluation of heterocyclic bis-aryl amides as novel Src homology 2 domain containing protein tyrosine phosphatase-2 (SHP2) inhibitors” (Bioorg Med Chem Lett, 2020).
Active and inactive are the calls of the source. The rule behind the calls is not given here.

How the values were obtained:
[1] = biological target: T1, Tyrosine-protein phosphatase non-receptor type 1 (Homo sapiens, UniProt P18031); assay: Inhibition of GST-tagged PTP1B (unknown origin) using pNPP as substrate measured for 3 mins by colorimetric assay
T1 sequence (P18031 whole entry): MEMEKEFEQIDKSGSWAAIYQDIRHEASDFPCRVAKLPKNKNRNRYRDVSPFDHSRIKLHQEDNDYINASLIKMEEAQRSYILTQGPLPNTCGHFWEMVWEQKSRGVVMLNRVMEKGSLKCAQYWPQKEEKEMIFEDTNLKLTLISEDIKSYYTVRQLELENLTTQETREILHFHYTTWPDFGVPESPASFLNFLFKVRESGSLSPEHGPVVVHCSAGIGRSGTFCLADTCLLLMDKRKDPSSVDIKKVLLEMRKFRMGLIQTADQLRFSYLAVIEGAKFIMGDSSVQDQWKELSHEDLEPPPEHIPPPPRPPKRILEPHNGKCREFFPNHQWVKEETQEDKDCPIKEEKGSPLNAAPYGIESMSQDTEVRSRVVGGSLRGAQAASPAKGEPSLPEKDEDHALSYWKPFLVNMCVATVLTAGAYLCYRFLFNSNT

[2] = biological target: T2, Tyrosine-protein phosphatase non-receptor type 11 (Homo sapiens) (UniProt Q06124); assay: Inhibition of SHP2 (unknown origin) at 20 ug/ml using 3-o-methylfluorescein phosphate as substrate by fluorescence assay relative to control
T2 sequence (whole entry): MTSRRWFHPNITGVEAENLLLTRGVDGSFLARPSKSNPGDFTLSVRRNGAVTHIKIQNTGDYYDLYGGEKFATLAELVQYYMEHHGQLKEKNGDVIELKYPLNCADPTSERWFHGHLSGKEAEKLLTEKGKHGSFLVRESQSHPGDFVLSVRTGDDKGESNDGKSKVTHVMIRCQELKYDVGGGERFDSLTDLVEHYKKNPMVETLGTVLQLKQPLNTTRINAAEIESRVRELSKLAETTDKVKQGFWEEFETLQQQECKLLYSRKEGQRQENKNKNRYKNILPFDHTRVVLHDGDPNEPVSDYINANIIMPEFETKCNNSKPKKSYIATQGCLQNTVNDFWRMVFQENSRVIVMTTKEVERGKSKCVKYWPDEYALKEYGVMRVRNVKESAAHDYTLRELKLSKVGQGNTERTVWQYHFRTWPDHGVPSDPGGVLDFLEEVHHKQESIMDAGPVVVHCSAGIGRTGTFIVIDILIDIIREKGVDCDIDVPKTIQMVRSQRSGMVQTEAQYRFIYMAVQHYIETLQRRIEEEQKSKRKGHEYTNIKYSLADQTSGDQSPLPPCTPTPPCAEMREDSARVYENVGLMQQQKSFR

[3] = biological target: T3, Tyrosine-protein phosphatase non-receptor type 1 (Homo sapiens) (UniProt P18031); assay: Inhibition of GST-tagged PTP1B (unknown origin) at 20 ug/ml using pNPP as substrate measured for 3 mins by colorimetric assay relative to control
T3 sequence (whole entry): T1 sequence (P18031 whole entry)

[4] = biological target: T4, Tyrosine-protein phosphatase non-receptor type 11 (Homo sapiens, UniProt Q06124); assay: Inhibition of SHP2 (unknown origin) using 3-o-methylfluorescein phosphate as substrate by fluorescence assay
T4 sequence (Q06124 whole entry): T2 sequence (whole entry)

[5] = biological target: T5, Tyrosine-protein phosphatase non-receptor type 2 (Homo sapiens, UniProt P17706); assay: Inhibition of GST-tagged TCPTP (unknown origin) using pNPP as substrate measured for 3 mins by colorimetric assay
T5 sequence (P17706 whole entry): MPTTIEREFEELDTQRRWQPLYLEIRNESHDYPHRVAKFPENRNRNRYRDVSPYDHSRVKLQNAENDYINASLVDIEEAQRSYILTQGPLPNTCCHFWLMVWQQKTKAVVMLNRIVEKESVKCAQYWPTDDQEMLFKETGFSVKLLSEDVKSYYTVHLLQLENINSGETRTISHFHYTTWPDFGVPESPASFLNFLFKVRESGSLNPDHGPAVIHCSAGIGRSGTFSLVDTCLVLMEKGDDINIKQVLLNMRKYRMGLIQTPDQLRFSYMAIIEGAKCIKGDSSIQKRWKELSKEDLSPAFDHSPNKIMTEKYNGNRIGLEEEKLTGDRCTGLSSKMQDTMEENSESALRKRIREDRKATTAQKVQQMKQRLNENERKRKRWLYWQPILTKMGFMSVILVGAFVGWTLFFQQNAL

Homo sapiens [6] = organism: Homo sapiens; assay: Selectivity index, ratio of IC50 for SHP1 (unknown origin) to IC50 for SHP2 (unknown origin)
[7] = biological target: T2, Tyrosine-protein phosphatase non-receptor type 11 (Homo sapiens); assay: Fast binding inhibition of SHP2 (unknown origin) using DiFMUP as substrate by enzyme kinetics assay
[8] = biological target: T2, Tyrosine-protein phosphatase non-receptor type 11 (Homo sapiens); assay: Competitive inhibition of SHP2 (unknown origin) assessed as increase in Km with constant Vmax using DiFMUP as substrate by Lineweaver-Burk plot analysis
Homo sapiens [9] = organism: Homo sapiens; assay: Selectivity index, ratio of IC50 for SHP2 (unknown origin) to IC50 for GST-tagged TCPTP (unknown origin)
[10] = biological target: Tyrosine-protein phosphatase non-receptor type 6 (Homo sapiens) (UniProt P29350); assay: Inhibition of SHP1 (unknown origin) at 20 ug/ml using 3-o-methylfluorescein phosphate as substrate by fluorescence assay relative to control
Sequence of Tyrosine-protein phosphatase non-receptor type 6 (Homo sapiens) (P29350 whole entry): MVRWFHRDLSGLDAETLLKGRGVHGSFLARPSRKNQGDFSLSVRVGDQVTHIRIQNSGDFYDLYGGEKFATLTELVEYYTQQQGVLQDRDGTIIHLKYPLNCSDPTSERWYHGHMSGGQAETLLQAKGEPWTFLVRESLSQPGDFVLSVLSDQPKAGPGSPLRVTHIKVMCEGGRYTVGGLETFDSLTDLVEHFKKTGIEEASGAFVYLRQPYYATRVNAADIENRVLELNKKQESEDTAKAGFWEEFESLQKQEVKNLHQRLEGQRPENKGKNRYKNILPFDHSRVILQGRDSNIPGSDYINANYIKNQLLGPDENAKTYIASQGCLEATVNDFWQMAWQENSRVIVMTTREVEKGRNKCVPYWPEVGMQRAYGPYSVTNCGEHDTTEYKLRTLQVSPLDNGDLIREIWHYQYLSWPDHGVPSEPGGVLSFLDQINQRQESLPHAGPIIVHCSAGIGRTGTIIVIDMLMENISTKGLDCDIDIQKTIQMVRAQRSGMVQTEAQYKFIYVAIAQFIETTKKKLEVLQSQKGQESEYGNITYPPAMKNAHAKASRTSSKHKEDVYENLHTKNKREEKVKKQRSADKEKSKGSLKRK

[11] = biological target: T2, Tyrosine-protein phosphatase non-receptor type 11 (Homo sapiens); assay: Reversible inhibition of SHP2 (unknown origin) using DiFMUP as substrate by enzyme kinetics based dialysis assay

## O=C(Nc1ccccc1)c1ccc(-c2ncc(C(=O)Nc3ccccc3)s2)cc1
[1]
  IC50: 7.94 µM
[2]
  inhibition: < 50%

## O=C(NC1CCCCC1)c1ccc(-c2ccc(C(=O)NC3CCCCC3)o2)cc1
[3]
  inhibition: < 50%
[2]
  inhibition: < 50%

## O=C(Nc1ccc(F)cc1)c1ccc(-c2ccc(C(=O)Nc3ccc(F)cc3)o2)cc1
[1]
  IC50: 10.5 µM
[2]
  inhibition: < 50%

## O=C(Nc1ccc(Cl)cc1)c1ccc(-c2ccc(C(=O)Nc3ccc(Cl)cc3)o2)cc1
[1]
  IC50: 15.7 µM
[2]
  inhibition: < 50%

## O=C(Nc1ccccc1)c1ccc(-c2ccc(C(=O)Nc3ccccc3)o2)cc1
[1]
  IC50: 3.48 µM
[4]
  IC50: 4.63 µM

## O=C(Nc1ccc(F)cc1)c1ccc(-c2ccc(C(=O)Nc3ccc(F)cc3)s2)cc1
[5]
  IC50: 9.16 µM
Homo sapiens [6]
  Ratio IC50: > 43.8
[7]
  inhibition: Active
[8]
  inhibition: Active
[3]
  inhibition: < 50%
Homo sapiens [9]
  Ratio IC50: 4
[4]
  IC50: 2.63 µM
[10]
  inhibition: < 50%
[11]
  inhibition: Active

## O=C(Nc1ccccc1)c1ccc(-c2ccc(C(=O)Nc3ccccc3)s2)cc1
[1]
  IC50: 3.52 µM
[4]
  IC50: 5.75 µM

## O=C(Nc1ccccc1)c1ccc(-c2ccc(C(=O)Nc3ccccc3)[nH]2)cc1
[1]
  IC50: 23.4 µM
[2]
  inhibition: < 50%

## O=C(NC1CCCCC1)c1ccc(-c2ccc(C(=O)NC3CCCCC3)s2)cc1
[1]
  IC50: 4.88 µM
[4]
  IC50: 10.7 µM

## O=C(Nc1ccc(F)cc1)c1ccc(-c2ccc(C(=O)Nc3ccc(F)cc3)[nH]2)cc1
[1]
  IC50: 28.3 µM
[4]
  IC50: 20.3 µM

## SODIUM ORTHOVANAD
Homo sapiens [6]
  Ratio IC50: 1.92

## O=C(Nc1ccc(F)cc1)c1ccc(-c2ncc(C(=O)Nc3ccc(F)cc3)s2)cc1
[3]
  inhibition: < 50%
[4]
  IC50: 4.63 µM
